Experimental data as given in publication PMC6271282, “Playing with Opening and Closing of Heterocycles: Using the Cusmano-Ruccia Reaction to Develop a Novel Class of Oxadiazolothiazinones, Active as Calcium Channel Modulators and P-Glycoprotein Inhibitors” (Molecules, 2014).

Key:
[1] = molecular target: T1, L-type Ca2+ channel (LTCC, Cav1.2) (Rattus norvegicus, UniProt P22002); test: whole-cell patch clamp, IBa(L); also potentiates [3H]diltiazem binding in rat cardiomyocytes ([…]); assay type: cell-based
T1 construct: gene Cacna1c; native channel in single rat tail main artery myocytes
T1 sequence (P22002 whole entry): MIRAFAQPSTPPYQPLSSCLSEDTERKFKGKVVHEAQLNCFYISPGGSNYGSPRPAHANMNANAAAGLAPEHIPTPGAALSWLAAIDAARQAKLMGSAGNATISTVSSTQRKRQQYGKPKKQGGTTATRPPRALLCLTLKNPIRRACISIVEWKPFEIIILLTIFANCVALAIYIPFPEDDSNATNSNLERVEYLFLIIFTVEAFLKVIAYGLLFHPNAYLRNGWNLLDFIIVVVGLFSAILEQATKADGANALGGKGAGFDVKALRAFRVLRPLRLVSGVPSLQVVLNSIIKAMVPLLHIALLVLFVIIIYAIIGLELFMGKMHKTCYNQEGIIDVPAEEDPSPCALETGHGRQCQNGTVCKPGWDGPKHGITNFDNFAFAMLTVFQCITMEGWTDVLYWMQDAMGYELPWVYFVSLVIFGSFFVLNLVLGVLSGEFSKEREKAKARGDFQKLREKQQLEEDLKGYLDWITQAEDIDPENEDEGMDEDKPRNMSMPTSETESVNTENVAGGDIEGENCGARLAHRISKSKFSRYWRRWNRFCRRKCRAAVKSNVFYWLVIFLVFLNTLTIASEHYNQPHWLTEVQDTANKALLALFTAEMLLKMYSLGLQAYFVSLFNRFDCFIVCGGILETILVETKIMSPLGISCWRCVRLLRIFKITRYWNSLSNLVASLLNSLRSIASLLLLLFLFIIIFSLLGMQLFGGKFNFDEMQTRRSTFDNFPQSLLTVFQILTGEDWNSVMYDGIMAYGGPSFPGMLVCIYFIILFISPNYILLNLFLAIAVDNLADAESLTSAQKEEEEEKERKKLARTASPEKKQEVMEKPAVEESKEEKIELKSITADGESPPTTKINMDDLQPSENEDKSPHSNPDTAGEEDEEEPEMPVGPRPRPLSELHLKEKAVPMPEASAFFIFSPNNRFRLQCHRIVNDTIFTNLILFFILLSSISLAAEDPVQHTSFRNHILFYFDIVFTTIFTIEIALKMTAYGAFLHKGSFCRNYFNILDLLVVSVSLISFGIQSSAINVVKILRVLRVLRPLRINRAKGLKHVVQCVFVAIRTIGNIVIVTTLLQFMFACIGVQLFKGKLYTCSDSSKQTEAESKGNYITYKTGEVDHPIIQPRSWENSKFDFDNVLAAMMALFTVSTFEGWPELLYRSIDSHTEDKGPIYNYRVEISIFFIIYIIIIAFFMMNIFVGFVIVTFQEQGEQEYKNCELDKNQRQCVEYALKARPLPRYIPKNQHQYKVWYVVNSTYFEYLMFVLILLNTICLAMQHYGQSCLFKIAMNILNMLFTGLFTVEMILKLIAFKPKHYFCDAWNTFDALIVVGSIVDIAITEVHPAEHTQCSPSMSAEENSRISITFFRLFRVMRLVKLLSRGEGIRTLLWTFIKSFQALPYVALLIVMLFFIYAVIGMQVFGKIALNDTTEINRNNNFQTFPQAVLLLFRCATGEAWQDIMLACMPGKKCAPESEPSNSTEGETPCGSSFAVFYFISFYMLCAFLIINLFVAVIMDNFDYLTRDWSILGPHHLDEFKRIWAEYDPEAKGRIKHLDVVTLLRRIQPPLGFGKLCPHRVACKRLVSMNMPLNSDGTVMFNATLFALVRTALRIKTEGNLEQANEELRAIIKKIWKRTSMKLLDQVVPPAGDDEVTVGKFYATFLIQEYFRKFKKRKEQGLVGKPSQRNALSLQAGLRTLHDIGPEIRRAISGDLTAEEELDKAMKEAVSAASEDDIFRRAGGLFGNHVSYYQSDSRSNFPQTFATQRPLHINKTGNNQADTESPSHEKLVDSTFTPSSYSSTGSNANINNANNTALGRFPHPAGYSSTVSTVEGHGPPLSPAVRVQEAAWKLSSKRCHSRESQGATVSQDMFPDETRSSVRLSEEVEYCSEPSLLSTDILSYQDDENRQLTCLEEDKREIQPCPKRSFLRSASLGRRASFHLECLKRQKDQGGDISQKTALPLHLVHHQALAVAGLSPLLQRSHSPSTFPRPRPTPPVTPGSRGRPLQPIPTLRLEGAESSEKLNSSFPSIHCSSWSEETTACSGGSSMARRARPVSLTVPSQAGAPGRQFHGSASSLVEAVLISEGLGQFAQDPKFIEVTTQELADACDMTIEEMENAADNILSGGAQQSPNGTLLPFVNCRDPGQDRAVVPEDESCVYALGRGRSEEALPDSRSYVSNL

[2] = molecular target: T1, L-type Ca2+ channel (LTCC, Cav1.2); test: whole-cell patch clamp, IBa(L); assay type: cell-based

Structure (SMILES)	IC50 [1]	IC50 [2]
O=c1onc2n1-c1ccc(Cl)cc1SC2(O)c1ccc(Br)cc1 (centres unmarked) [compound 30, 4-(4-Bromophenyl)-7-chloro-4-hydroxy-4H-[1,2,4]oxadiazolo[3,4-c][1,4]benzothiazin-1-one]	~3 µM	
CC1=CSC(OCCN2CCCCC2)(c2ccc(Br)cc2)c2noc(=O)n21 (centres unmarked) [compound 32, 8-(4-Bromophenyl)-5-methyl-8-(2-piperidin-1-ylethoxy)-8H-[1,2,4]oxadiazolo[3,4-c][1,4]thiazin-3-one]		~30 µM
